Reference: patent US11382907B2, “Methods and compositions for treating aging-associated impairments using CCR3-inhibitors” (Alkahest, Inc., priority 2017, dated 2022)
“Also recorded” adds a separate entry of the source.

Experiments:
[1] = system: human eosinophils activated by human eotaxin-1; assay: Eosinophil shape change (ESC) assay (FACS, whole blood); format: cell-based; conditions: whole blood from humans treated with Compound 1, incubated with human recombinant eotaxin-1
Protocol: The ESC determines the shape change of human eosinophils activated by human eotaxin-1 (PreProTech, Rocky Hill, N.J.) compared to native eosinophils. The change is detected as the change in the forward-scatter measured by FACS (fluorescence activated cell sorter). The mean forward scatter of the autofluorescence (eosinophil) population for each sample was determined in conjunction with the mean of each set of sample triplicates. Methods of determining ESC have been previously described and are known in the art.
Whole blood from humans treated with Compound 1 was incubated with human recombinant eotaxin-1 to trigger eosinophil shape change (FIG. 34A) or CCR3 receptor internalization (FIG. 34B).

[2] = system: inflammatory cytokines TNFa, IL6, IL1beta, IL5, IL17; assay: Luminex assay of inflammatory cytokines in plasma of aged mice; format: in vivo, C57Bl/6 mice; conditions: 23-month-old mice, 30 mg/kg SQ BID 21 days
Protocol: Panels of circulating cytokines from mouse plasma were analyzed by Luminex. Luminex Assay Service performed by Eve Technologies (Calgary, Alberta, Canada).
23-month-old C57Bl/6 mice were dosed with either vehicle control or Compound 1 subcutaneously twice daily for 21 days. Three weeks later, mice were subjected to behavior testing, and sacrificed the day following the last behavior test.
Treatment Groups: • Treatment Group 1b, Vehicle treatment: Aged C57Bl/6 mice (n=9), aged 23 months, received twice daily (BID) subcutaneous (SQ) treatment of vehicle solution for 21 days. • Treatment Group 4, Compound 1 treatment: Aged C57Bl/6 mice (n=17), aged 23 months, received twice daily (BID) subcutaneous (SQ) treatment of Compound 1, 30 mg/kg, for 21 days.

blood eosinophils = assay: Oxazolone-induced model of eosinophilia in hairless mice (CBC); format: in vivo; conditions: 3-month-old hairless mice, oxazolone every other day, 30 mg/kg PO BID 2 weeks
Protocol: 3-month-old hairless mice were treated with oxazolone (Ox) every other day and treated with control saline or 30 mg/kg Compound 1 for 2 weeks BID, PO.
Treatment Groups: • Treatment Group 1, Vehicle treatment: 3-month-old Hairless mice (n=3) received twice daily (BID) oral gavage (PO) treatment of vehicle solution for 2 weeks. • Treatment Group 2, Vehicle treatment and Oxazolone treatment: 3-month-old Hairless mice (n=6) received twice daily (BID) oral gavage (PO) treatment of vehicle solution for 2 weeks. • Treatment Group 3, Compound 1 treatment and Oxazolone treatment: 3-month-old Hairless mice (n=6) received twice daily (BID) oral gavage (PO) treatment of Compound 1, 30 mg/kg, for 2 weeks.

[3] = system: CD68+ activated microglia; assay: CD68+ activated microglia after one dose of LPS; format: in vivo, C57 mice; conditions: 3-month-old mice; one dose LPS 10 mg/kg IP; 30 mg/kg BID oral gavage 18 days
Source text: Mice were taken down on the day following the end of behavior testing. Anesthesia was induced by 2,2,2-tribromoethanol and mice were subsequently perfused with 0.9% saline trans-cardially. The brains were dissected and cut sagitally in two even halves. One half was snap frozen for later use in dry ice, and the other was fixed in 4% paraformaldehyde in PBS for use in immunohistochemistry. After two days of fixation, the hemibrains were transferred to a 30% sucrose in PBS solution and changed after two days. Hemibrains were sectioned at 30 um on a microtome at −22° C. Brain sections were stored in cryoprotectant media at −20° C. until needed for staining. Blocking was done on free floating sections in the appropriate serum at 10% serum in PBST 0.5%. Primary antibodies were incubated overnight at 4 C. For light microscopy, the following antibodies were used in the given concentrations: DCX, 1:200, Santa Cruz BioTech, CD68, 1:1000. AbD Serotec. Secondary biotinylated antibodies were applied the next day at a concentration of 1:300. Staining visualization was achieved by reaction with the ABC kit (Vector) and diaminobenzidine (Sigma). Dehydration of the mounted slides was achieved using ethanol and xylene dips. Images were acquired on a Leica light microscope at 5× magnification. […]

## Cc1cc(C(=O)N(C)C)cc(NC(=O)[C@H]2CCC(=O)N2C2CCN(Cc3ccc(Cl)c(C)c3)CC2)n1 [Compound 1]
[1]
  inhibition of eosinophil shape change versus plasma Compound 1 concentration: robust concentration-dependent effect
[2]
  plasma IL1beta level: strong trends in decrease; also recorded: trend lower
  plasma IL5 level: strong trends in decrease; also recorded: trend lower
  plasma IL6 level: strong trends in decrease; also recorded: trend lower
  plasma IL17 level: strong trends in decrease; also recorded: trend lower
  plasma TNFa level: strong trends in decrease; also recorded: trend lower
Blood eosinophils
  blood eosinophils (percentage of WBC count): decreased the oxazolone-induced increase in blood eosinophils; also recorded: decreased an oxazolone-induced increase in blood eosinophils
[3]
  CD68+ immunoreactivity (activated microglia) in brain: significantly decreased CD68+ immunoreactivity
